Experimental data published in patent US20130225614A1, “4-AZOLYLAMINOQUINAZOLINE DERIVATIVES AND METHODS OF USE THEREOF” (Ambit Biosciences Corporation, priority 2010, published 2013).

What was measured:
[1] = target: T1, JAK3 (Homo sapiens, UniProt P52333); assay: Competition binding assay, Kd against JAK3
T1 construct: made in house; host or cells: T7 phage display or HEK-293 cells (alternatives; not specified per kinase)
T1 sequence (P52333 1-1124): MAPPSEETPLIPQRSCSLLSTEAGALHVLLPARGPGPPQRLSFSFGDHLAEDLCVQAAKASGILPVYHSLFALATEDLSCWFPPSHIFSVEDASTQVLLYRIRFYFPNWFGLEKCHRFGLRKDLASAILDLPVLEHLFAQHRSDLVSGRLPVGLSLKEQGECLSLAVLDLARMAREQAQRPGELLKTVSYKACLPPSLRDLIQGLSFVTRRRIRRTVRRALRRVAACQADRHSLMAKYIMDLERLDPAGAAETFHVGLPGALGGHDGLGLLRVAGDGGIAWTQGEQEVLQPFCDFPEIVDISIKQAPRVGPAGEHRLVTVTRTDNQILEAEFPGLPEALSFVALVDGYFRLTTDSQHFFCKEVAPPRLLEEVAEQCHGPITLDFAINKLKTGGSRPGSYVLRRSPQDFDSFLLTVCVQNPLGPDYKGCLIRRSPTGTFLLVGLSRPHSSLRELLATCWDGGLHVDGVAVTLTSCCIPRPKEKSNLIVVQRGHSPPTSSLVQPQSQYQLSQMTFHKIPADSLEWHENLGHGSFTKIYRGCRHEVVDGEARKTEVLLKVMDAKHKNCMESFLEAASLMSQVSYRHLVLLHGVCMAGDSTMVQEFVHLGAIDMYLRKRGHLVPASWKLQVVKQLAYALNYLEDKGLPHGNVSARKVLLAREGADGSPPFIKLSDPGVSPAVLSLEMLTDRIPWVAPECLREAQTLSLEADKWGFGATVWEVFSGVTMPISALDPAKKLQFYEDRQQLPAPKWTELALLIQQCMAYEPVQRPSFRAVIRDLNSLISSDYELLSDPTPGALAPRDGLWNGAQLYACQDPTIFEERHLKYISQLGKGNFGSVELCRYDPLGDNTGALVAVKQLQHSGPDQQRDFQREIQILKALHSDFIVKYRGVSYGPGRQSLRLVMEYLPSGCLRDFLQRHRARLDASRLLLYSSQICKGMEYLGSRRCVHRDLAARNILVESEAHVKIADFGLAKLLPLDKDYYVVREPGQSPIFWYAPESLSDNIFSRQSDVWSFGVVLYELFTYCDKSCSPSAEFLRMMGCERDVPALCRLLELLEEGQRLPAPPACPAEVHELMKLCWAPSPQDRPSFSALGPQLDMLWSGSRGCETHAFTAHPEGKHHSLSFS
Procedure: (§1) Competition binding assays used herein were developed, validated and performed as described in Fabian et al., Nature Biotechnology 2005, 23, 329-336. Kinases were produced as fusions to T7 phage (See, Fabian et al. or WO04/015142) or alternatively, the kinases were expressed in HEK-293 cells and subsequently tagged with DNA for PCR detection (See, WO08/005,310). For the binding assays, streptavidin-coated magnetic beads were treated with biotinylated affinity ligands for 30 min at rt to generate affinity resins. The liganded beads were blocked with excess biotin and washed with blocking buffer (SeaBlock (Pierce), 1% BSA, 0.05% Tween 20, 1 mM DTT) to remove unbound ligand and to reduce non-specific binding. Binding reactions were assembled by combining kinase, liganded affinity beads, and test compounds in 1× binding buffer (20% SeaBlock, 0.17×PBS, 0.05% Tween 20, 6 mM DTT). Test compounds were prepared as 100× stocks in DMSO and rapidly diluted into the aqueous environment. DMSO was added to control assays lacking a test compound. Primary screen interactions were performed in polypropylene 384-well plates in a final volume of 34 μL, while Kd determinations were performed in polystyrene 96-well plates in a final volume of 135 μL. The assay plates were incubated at room temperature with shaking for 1 hour, long enough for binding reactions to reach equilibrium, and the affinity beads were washed extensively with wash buffer (1×PBS, 0.05% Tween 20) to remove unbound protein. The beads were then resuspended in elution buffer (1×PBS, 0.05% Tween 20, 2 μM non-biotinylated affinity ligand) and incubated at room temperature with shaking for 30 min. The kinase concentration in the eluates was measured by quantitative PCR. Each kinase was tested individually against each compound. Kds were determined using eleven serial threefold dilutions. A selectivity score, which is a quantitative measure of selectivity of a compound against a panel of enzymes, may be calculated for a compound by dividing the number of enzymes for which a compound meets a set criteria, (for example, a binding constant of 100 nM or less), by the total number of enzymes tested.

[2] = tested on: distinct kinases tested excluding mutant variants, typically 359 or 386 kinases; assay: Kinase selectivity in competition binding assays (S10 score; kinases within 100-fold of JAK2 Kd); settings: compound at 10 μM; fraction of kinases with inhibition of 90% or greater
Procedure: as §1
In certain embodiments, the compounds provided herein bind to JAK2 kinase with higher specificity as compared to non-mutant and non-JAK family kinases. For certain compounds provided herein, binding constants for less than 10 non-mutant and non-JAK family kinases are within 100-fold of the binding constant for JAK2 kinase for compounds provided herein. For certain compounds provided herein, binding constants for less than 8 non-mutant and non-JAK family kinases are within 100-fold of the binding constant for JAK2 kinase for compounds provided herein. […]

[3] = tested on: GM-CSFR/JAK2/STAT5 pathway; assay: CSTF-1 cell-based reporter assay (beta-lactamase reporter, GM-CSF stimulated); settings: Homo sapiens; csTF-1 cells, GM-CSF at 2 ng/mL, 4 hours; read-out: Cell Assay: CS TF-1 reporter assay IC50
Procedure: CSTF-1 cells are derived from the human erythroleukemia cell line that is growth dependent on GM-CSF and has an intact GM-CSFR/JAK2/STAT5 pathway. The cell line contains stably integrated beta-lactamase reporter gene under the control of the […] (irf 1) response element recognized by the activated transcription factor STATS. csTF-1 cells (Invitrogen K1219) were washed with assay media (97% OPTIMEM/0.5% dialyzed FBS/0.1 mM NEAA/1 mM Na pyr/P/S) and seeded in the same media at 5×10^5 cell/mL in T150 flask. After 16 hour incubation, cells were seeded at 2×10^5 cell/well in 50 μl volume, into Costar, clear bottom, 96-well assay plates. Serial dilutions of compounds were added to the plates with final DMSO concentration at 0.5% and GM-CSF at 2 ng/mL and the plates were then incubated at […] and 5% CO2 for 4 hours. The plates were brought to room temperature before adding Substrate Mixture according to manufacturer's protocol (Invitrogen, Catalog #K1085). The assay plates containing the substrate mixture were incubated in the dark at room temperature for 2 hours. Blue and green fluorescence was measured with excitation at 409 nm and emission at 460 nm (for blue) and excitation at 409 nm and emission at 530 nm (for green) using Spectra Max Gemini EM.

[4] = target: T2, JAK2 (Homo sapiens, UniProt O60674); assay: Competition binding assay, Kd against JAK2
T2 construct: made in house; host or cells: T7 phage display or HEK-293 cells (alternatives; not specified per kinase)
T2 sequence (O60674 whole entry): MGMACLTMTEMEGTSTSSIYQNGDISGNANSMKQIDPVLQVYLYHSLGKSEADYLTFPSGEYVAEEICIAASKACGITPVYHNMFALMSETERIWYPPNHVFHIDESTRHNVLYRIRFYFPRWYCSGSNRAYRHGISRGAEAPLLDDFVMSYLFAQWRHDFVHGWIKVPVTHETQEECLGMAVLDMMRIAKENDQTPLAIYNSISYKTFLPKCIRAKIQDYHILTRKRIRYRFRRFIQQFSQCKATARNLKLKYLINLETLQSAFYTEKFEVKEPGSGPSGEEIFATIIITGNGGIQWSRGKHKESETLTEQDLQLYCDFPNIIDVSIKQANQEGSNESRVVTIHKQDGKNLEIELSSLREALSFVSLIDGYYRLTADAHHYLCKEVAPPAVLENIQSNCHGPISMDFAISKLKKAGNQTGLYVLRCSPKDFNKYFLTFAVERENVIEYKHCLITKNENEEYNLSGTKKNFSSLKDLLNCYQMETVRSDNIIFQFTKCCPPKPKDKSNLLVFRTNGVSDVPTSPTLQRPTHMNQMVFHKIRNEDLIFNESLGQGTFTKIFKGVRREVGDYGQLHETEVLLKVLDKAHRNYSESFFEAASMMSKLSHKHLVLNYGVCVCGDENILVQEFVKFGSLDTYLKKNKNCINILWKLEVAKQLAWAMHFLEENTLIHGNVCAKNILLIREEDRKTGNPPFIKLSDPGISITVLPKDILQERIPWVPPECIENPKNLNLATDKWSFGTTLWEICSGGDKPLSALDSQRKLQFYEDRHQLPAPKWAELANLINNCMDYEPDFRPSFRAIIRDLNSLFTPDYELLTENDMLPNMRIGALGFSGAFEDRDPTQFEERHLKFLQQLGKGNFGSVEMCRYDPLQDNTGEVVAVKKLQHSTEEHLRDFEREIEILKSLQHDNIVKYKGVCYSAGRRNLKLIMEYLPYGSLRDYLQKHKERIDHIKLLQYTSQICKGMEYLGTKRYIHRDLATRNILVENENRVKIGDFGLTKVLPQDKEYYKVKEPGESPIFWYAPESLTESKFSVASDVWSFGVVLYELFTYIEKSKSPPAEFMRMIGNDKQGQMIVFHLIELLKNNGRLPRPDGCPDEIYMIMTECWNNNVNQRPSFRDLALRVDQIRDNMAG
Procedure: as §1

Row | SMILES | Kd [1] [nM] | S-Score: S(10) at 10 μM [2] | IC50 [3] [nM] | Kd [4] [nM]
1 | Cn1cnc(Nc2nc(C(O)c3ccc(F)cc3)nc3ccccc23)c1 (racemic) [Example 2, (R,S)-(4-fluorophenyl)(4-(1-methyl-1H-imidazol-4-ylamino)quinazolin-2-yl)methanol] | 10 to 100 | A (A ≦ 0.3) | 100 to 500 | ≤ 10
2 | OC(c1ccc(F)cc1)c1nc(Nc2c[nH]cn2)c2ccccc2n1 (racemic) [Example 3, (R,S)-(4-(1H-imidazol-4-ylamino)quinazolin-2-yl)(4-fluorophenyl)methanol] | > 100 | A (A ≦ 0.3) | > 500 | 10 to 50
3 | Cc1cnc(Nc2nc(C(O)c3ccc(F)cc3)nc3ccccc23)s1 (racemic) [Example 5, (R,S)-(4-fluorophenyl)(4-(5-methylthiazol-2-ylamino)quinazolin-2-yl)methanol] | > 100 | A (A ≦ 0.3) | > 500 | ≤ 10
4 | OC(c1ccc(F)cc1)c1nc(Nc2cscn2)c2ccccc2n1 (racemic) [Example 4, (R,S)-(4-fluorophenyl)(4-(thiazol-4-ylamino)quinazolin-2-yl)methanol] | > 100 | A (A ≦ 0.3) | > 500 | 10 to 50
